From ChEMBL document CHEMBL1909046, “DrugMatrix in vitro pharmacology data”

What was measured:
[1] = target: T1, Type-2 angiotensin II receptor (Homo sapiens, UniProt P50052); format: cell-based; details: cho-k1; also: in other assays of this panel Not Active means under 50% inhibition at 10 µM
T1 sequence (P50052 whole entry): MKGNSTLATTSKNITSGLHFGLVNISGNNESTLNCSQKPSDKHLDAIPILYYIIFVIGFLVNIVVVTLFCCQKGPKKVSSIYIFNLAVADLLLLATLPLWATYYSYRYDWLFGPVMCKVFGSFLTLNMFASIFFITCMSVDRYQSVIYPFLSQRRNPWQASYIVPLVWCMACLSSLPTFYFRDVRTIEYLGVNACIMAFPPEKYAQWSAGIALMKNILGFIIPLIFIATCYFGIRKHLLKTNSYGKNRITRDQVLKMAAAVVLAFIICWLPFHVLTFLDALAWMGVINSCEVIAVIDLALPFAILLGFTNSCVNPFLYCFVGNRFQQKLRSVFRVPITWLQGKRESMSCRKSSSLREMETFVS

[2] = target: T2, 5-hydroxytryptamine receptor 2C (Homo sapiens, UniProt P28335); test: DRUGMATRIX: Serotonin (5-Hydroxytryptamine) 5-HT2C radioligand binding (ligand: [3H] Mesulergine); format: cell membranes, CHO-K1, Membrane; details: cho-k1; Not Active = under 50% inhibition at 10 µM
T2 sequence (P28335 whole entry): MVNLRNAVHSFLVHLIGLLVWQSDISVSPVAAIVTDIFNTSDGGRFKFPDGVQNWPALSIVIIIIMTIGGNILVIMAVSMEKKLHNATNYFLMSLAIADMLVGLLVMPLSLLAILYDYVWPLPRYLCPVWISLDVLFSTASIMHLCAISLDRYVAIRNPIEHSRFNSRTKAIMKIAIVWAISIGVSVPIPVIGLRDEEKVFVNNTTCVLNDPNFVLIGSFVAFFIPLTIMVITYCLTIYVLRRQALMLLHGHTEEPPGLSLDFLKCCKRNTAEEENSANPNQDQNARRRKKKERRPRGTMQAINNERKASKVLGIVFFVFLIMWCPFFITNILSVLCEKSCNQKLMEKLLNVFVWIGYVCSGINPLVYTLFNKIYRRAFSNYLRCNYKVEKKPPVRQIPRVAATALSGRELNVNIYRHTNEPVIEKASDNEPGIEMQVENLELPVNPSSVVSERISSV

[3] = target: Vascular endothelial growth factor receptor 1 (Homo sapiens, UniProt P17948); format: cell-based; details: huvec; also: in other assays of this panel Not Active means under 50% inhibition at 10 µM
D(3) dopamine receptor = D(3) dopamine receptor (Homo sapiens, UniProt P35462); test: DRUGMATRIX: Dopamine D3 radioligand binding (ligand: [3H] Spiperone); format: cell membranes, CHO, Membrane; details: cho
[4] = DRUGMATRIX: GABAA, Chloride Channel, TBOB radioligand binding (ligand: [3H] TBOB); format: cell membranes, Rattus norvegicus, Wistar, Cerebral cortex, Membrane; details: Not Active = under 50% inhibition at 10 µM
[5] = target: Kappa-type opioid receptor (Homo sapiens, UniProt P41145); test: DRUGMATRIX: Opiate kappa (OP2, KOP) radioligand binding (ligand: [3H] Diprenorphine); format: cell membranes, HEK293, Membrane; details: hek293; Not Active = under 50% inhibition at 10 µM
Progesterone receptor = target: T3, Progesterone receptor (Bos taurus, UniProt Q690N0); test: DRUGMATRIX: Progesterone radioligand binding (ligand: [3H] R-5020); format: tissue-based, Uterus; details: Not Active = under 50% inhibition at 10 µM; for Ki: read-out: Ki
T3 sequence (Q690N0 whole entry): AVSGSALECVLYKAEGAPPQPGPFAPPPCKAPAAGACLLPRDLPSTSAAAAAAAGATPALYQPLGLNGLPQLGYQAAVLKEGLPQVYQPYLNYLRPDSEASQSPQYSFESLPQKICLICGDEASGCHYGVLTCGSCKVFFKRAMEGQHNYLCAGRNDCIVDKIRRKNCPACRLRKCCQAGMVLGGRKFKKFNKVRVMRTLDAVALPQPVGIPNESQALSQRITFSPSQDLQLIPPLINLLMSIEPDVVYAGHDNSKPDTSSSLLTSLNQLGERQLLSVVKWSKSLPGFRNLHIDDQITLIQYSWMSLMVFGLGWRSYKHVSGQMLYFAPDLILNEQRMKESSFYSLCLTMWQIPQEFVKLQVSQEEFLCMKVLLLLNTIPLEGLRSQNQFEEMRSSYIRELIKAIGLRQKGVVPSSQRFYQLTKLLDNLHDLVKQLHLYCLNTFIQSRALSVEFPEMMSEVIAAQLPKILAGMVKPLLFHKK

Sequence of Kappa-type opioid receptor (P41145 whole entry): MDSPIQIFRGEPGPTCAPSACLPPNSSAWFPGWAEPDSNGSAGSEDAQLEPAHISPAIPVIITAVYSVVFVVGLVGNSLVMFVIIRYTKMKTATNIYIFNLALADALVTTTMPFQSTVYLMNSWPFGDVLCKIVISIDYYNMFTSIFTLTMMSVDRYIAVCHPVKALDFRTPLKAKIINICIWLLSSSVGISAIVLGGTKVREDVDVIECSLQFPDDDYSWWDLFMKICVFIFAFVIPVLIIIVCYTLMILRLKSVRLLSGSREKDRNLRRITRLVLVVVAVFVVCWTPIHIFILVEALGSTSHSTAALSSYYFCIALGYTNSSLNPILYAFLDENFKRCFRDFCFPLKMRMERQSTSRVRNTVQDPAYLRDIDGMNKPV
Sequence of Vascular endothelial growth factor receptor 1 (P17948 whole entry): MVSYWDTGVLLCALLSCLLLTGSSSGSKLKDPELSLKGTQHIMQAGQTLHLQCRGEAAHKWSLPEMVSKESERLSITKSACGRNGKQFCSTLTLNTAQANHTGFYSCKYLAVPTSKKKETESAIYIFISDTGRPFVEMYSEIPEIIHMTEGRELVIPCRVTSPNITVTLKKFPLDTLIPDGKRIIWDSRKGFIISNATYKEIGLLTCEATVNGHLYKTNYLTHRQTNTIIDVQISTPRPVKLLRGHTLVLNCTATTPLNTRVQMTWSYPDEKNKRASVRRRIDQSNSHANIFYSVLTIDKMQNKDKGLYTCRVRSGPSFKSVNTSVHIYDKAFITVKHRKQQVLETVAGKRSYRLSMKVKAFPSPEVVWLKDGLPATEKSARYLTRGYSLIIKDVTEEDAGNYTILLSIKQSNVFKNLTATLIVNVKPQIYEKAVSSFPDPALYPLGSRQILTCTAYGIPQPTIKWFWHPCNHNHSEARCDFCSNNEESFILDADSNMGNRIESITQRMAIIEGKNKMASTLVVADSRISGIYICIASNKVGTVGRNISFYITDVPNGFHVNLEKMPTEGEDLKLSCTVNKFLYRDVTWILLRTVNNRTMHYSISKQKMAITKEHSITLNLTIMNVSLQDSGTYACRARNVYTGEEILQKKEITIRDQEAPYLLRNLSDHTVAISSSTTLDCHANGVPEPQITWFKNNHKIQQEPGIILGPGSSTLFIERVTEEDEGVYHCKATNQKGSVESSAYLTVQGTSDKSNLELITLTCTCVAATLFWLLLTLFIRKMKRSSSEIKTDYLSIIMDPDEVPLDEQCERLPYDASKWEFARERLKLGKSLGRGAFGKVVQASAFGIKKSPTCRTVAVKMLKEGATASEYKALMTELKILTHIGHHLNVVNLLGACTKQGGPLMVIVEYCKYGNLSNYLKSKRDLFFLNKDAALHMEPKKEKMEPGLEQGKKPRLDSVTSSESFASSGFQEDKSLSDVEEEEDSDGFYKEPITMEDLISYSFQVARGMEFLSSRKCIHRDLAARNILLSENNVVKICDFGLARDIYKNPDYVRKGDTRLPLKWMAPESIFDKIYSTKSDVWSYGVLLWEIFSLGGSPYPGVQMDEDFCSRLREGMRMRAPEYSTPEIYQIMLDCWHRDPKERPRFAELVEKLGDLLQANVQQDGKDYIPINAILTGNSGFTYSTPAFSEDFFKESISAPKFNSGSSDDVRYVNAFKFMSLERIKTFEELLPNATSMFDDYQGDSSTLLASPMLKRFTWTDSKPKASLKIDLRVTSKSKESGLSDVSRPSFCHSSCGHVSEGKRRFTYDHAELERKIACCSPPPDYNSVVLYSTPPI
Sequence of D(3) dopamine receptor (P35462 whole entry): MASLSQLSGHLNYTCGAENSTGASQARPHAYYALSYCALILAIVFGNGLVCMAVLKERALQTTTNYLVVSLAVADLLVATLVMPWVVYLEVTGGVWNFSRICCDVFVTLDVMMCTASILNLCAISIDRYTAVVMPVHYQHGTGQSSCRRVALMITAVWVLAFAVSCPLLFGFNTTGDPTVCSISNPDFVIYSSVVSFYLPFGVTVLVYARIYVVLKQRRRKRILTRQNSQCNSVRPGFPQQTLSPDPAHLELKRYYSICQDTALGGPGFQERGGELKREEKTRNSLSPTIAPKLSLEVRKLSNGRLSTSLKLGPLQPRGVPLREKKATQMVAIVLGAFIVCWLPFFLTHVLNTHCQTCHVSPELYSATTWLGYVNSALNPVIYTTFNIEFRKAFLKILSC

Structure (SMILES)	IC50 [1]	IC50 [2]	IC50 [3]	IC50 (D(3) dopamine receptor)	IC50 [4]	Ki [4]	IC50 [5]	IC50 (Progesterone receptor)	IC50 (Progesterone receptor; read-out: IC50) [nM]	Ki (Progesterone receptor) [nM]
CNCCc1ccccn1 [BETAHISTINE]	Not Active	Not Active	Not Active	Not Active	Not Active	Not Active	Not Active	Not Active		
NC(=O)N1c2ccccc2CCc2ccccc21	Not Active	Not Active	Not Active	Not Active	Not Active	Not Active	Not Active	Not Active		
NCCCCCC(=O)O [AMINOCAPROIC ACID]	Not Active	Not Active	Not Active	Not Active	Not Active	Not Active	Not Active	Not Active		
C=C(C)C1(O)OC(=O)C=C1OC (configuration not stated) [PENICILLIC ACID]	Not Active	Not Active	Not Active	Not Active	Not Active	Not Active	Not Active	Not Active		
CC1(C)O[C@@H]2C[C@H]3[C@@H]4CCC5=CC(=O)CC[C@]5(C)[C@@]4(F)[C@@H](O)C[C@]3(C)[C@]2(C(=O)CCl)O1 [HALCINONIDE]	Not Active	Not Active	Not Active	Not Active	Not Active	Not Active	Not Active		0.93	0.121
COc1cc2c3cc1Oc1cc(ccc1O)C[C@@H]1c4c(cc(OC)c(O)c4Oc4ccc(cc4)C[C@@H]3N(C)CC2)CC[N+]1(C)C.[Cl-]	Not Active	Not Active	Not Active	Not Active	Not Active	Not Active	Not Active	Not Active		
Cc1cc(C(C#N)c2ccc(Cl)cc2)c(Cl)cc1NC(=O)c1cc(I)cc(I)c1O (configuration not stated) [CLOSANTEL]	Not Active	Not Active	Not Active	Not Active	Not Active	Not Active	Not Active	Not Active		
CC(NC(C)(C)C)C(=O)c1cccc(Cl)c1 (configuration not stated) [BUPROPION]	Not Active	Not Active	Not Active	Not Active	Not Active	Not Active	Not Active	Not Active		
Cc1onc(-c2ccccc2Cl)c1C(=O)N[C@@H]1C(=O)N2[C@@H]1SC(C)(C)[C@@H]2C(=O)O [CLOXACILLIN]	Not Active	Not Active	Not Active	Not Active	Not Active	Not Active	Not Active	Not Active		
CNCCCN1c2ccccc2CCc2ccccc21 [DESIPRAMINE]	Not Active	Not Active	Not Active	Not Active	Not Active	Not Active	Not Active	Not Active		
C[C@]12CC[C@@H]3c4ccc(O)cc4CC[C@H]3[C@@H]1CCC2=O [ESTRONE]	Not Active	Not Active	Not Active	Not Active	Not Active	Not Active	Not Active		16100	2100
C[C@]12CCC(=O)C=C1CC[C@@H]1[C@@H]2CC[C@@]2(C)[C@H]1CC[C@]2(C)O [METHYLTESTOSTERONE]	Not Active	Not Active	Not Active	Not Active	Not Active	Not Active	Not Active		251	33
CC(=O)O[C@@]12CO[C@@H]1C[C@H](O)[C@@]1(C)C(=O)[C@H](O)C3=C(C)[C@@H](OC(=O)[C@H](O)[C@@H](NC(=O)OC(C)(C)C)c4ccccc4)C[C@@](O)([C@@H](OC(=O)c4ccccc4)[C@H]21)C3(C)C.O.O.O [DOCETAXEL]	Not Active	Not Active	Not Active	Not Active	Not Active	Not Active	Not Active	Not Active		
